Source: US20240324599A1, “PESTICIDAL ENZYMES FOR USE ON NEMATODES, INSECTS, AND MOLLUSKS” (priority 2023, published 2024)

System: corn
Test: Field trial: esterase on urea with or without NBPT, corn yield
Format: in vivo
Details: corn, NBPT 64 fl oz/ton on Urea (135 lb/A Nitrogen), no EstA
Procedure: Esterase A (EstA) from Bacillus subtilis (SEQ ID NO:254) was produced via fermentation of a recombinantly produced enzyme in Bacillus subtilis. 1, 2, or 3 fl oz of fermentation product was applied onto 135 lb N/A (nitrogen equivalent per acre) urea fertilizer in a concrete mixer, and allowed to mix for 1 minute. A urea control treatment without fermentation media was also created. An addition treatment that contained 64 fl oz/ton N-Butyl-thiophosphoric triamide (NBPT) nitrogen stabilizer or 64 fl oz/ton NBPT nitrogen stabilizer with 3 fl oz/A EstA fermentation product was also included in the trial. Urea, alone or with fermentation media was distributed across 4 small replicated plots each prior to planting of corn with 4 replicates of 400 ft2 each at each site.

CCCCNP(N)(N)=S [NBPT, N-Butyl-thiophosphoric triamide, reference compound]
Yield (base control 188.2): 191.2 Bu/A | Yield (base control 11830.4): 12022.3 Kg/ha
